Measurements from patent US4396550A, “Dibenz [b,e] oxepin derivatives” (Kyowa Hakko Kogyo Co., Ltd., priority 1980, dated 1983).

Assays:
[1] = test system: isolated ileum of guinea-pig; assay: Test for anticholinergic effects on the isolated ileum of guinea-pig (acetylcholine contraction, in vitro); design: species or system guinea-pig (male Hartly-strain); conditions: Cavia porcellus, 0.05 h; depressing ratio of 80% or more of acetylcholine contraction; compound 3 minutes before; read-out: Anticholinergic activity: MED (minimum effective dose)
Procedure: (§1) Male Hartly-strain guinea-pigs weighing about 250 g are killed and the abdomen is opened. The part (2-3 cm in length) of the ileum 10 cm away from the caecum to the pylorus is cut off as a preparation. The preparation is suspended with serre-fine in a Magnus bath containing 10 ml of Tyrode's solution at 32±1° C. under an air bubble. The contraction of the ileum is recorded on Kymograph through hebel when 0.1 ml of acetylcholine at a concentration of 10^-3 g/ml is added to the Tyrode's solution.
(§2) On the other hand, 3 minutes after administration of the test compounds, the same procedure as mentioned above is carried out to record the contraction.

[2] = test system: isolated ileum of guinea-pig; assay: Test for antihistaminergic effects on the isolated ileum of guinea-pig (histamine contraction, in vitro); design: species or system guinea-pig (male Hartly-strain); conditions: Cavia porcellus, 0.05 h; depressing ratio of 80% or more of histamine contraction; read-out: Antihistaminergic activity: MED
Procedure: as §1, §2
In this test, 0.1 ml of histamine at a concentration of 5×10^-3 g/l is used.

[3] = test system: blood platelets (platelet-rich plasma); assay: Test for the inhibition of platelet aggregation (collagen-induced, platelet-rich plasma); assay type: cell-based, male white rabbits; conditions: Oryctolagus cuniculus, Platelet, 0.05 h; depressing ratio of 50% of collagen-induced aggregation; compound 3 minutes before; read-out: Antiplatelet aggregation activity: MED
Procedure: In this test, 9 vols. of blood are sampled from the caroted artery of male white rabbits weighing 2 to 2.5 kg and placed in a silicon-coated flask containing 1 vol. of 3.8% sodium citrate. The thus obtained blood is centrifuged at 1,000 rpm for 15 minutes to obtain platelet-rich plasma. The aggregation of the blood platelets is observed using an aggregometer, when collagen is added to the platelet-rich plasma to the extent of the final concentration that 50% of platelet aggregation is caused in the presence of 100 γ/ml of aspirin. On the other hand, 3 minutes after administration of the test compounds to the platelet-rich plasma, the same procedure as mentioned above is carried out to observe the aggregation of blood platelet. The test compounds showing a depressing ratio of 50%, compared with the inhibition of aggregation by collagen alone, are concluded to have antiplatelet aggregation activity.

male dd-strain rats = assay: Acute toxicity test (minimum lethal dose); assay type: in vivo; conditions: mortality for 7 days
Procedure: Groups of male dd-strain rats (each group consisting of five rats) weighing 20±1 g were used. The compounds of the present invention were administered orally (po: 0.3 mg/g) or intraperitoneally (ip: 0.1 mg/g). The MLD (minimum lethal dose) was calculated from the mortality for 7 days after the administration to obtain the results given in Table 1.

| Compound | minimal effective concentration [1] [µg/mL] | minimal effective concentration [2] [µg/mL] | minimal effective concentration [3] [µg/mL] | Acute toxicity: MLD (minimum lethal dose) (male dd-strain rats; ip) [mg/kg] | Acute toxicity: MLD (minimum lethal dose) (male dd-strain rats; po) [mg/kg] |
| --- | --- | --- | --- | --- | --- |
| CCc1ccc2c(c1)C(NCCCN(C)C)c1ccccc1CO2 (centres unmarked) [Compound 15, 2-ethyl-11-{3-(dimethylamino)propyl}amino-6,11-dihydrodibenz[b,e]oxepin] | 3 | 3 | 20 | > 100 | > 300 |
| COc1ccc(CCNC2c3ccccc3COc3ccc(F)cc32)cc1OC (centres unmarked) [Compound 60, 2-fluoro-11-{2-(3,4-dimethoxyphenyl)ethyl}amino-6,11-dihydrodibenz[b,e]oxepin] |  | 10 |  | > 100 | > 300 |
| CCN(CC)CCCNC1c2ccccc2COc2c(C)cccc21 (centres unmarked) [Compound 6, 4-methyl-11-{3-(diethylamino)propyl}amino-6,11-dihydrodibenz[b,e]oxepin] | 3 | 10 | 20 | 100 | 300 |
| Fc1ccc(C(c2ccc(F)cc2)N2CCN(C3c4ccccc4COc4ccc(F)cc43)CC2)cc1 (centres unmarked) [Compound 43, 2-fluoro-11-[4-{bis-(4-fluorophenyl)}methyl-1-piperazinyl]-6,11-dihydrodibenz[b,e]oxepin] |  |  | 100 | > 100 | > 300 |
| Fc1ccc2c(c1)C(NCCN(Cc1ccccc1)Cc1ccccc1)c1ccccc1CO2 (centres unmarked) [Compound 34, 2-fluoro-11-{2-(dibenzylamino)ethyl}amino-6,11-dihydrodibenz[b,e]oxepin] |  | 10 |  | > 100 | 300 |
| Cc1ccc2c(c1)C(N1CCC3(CC1)OCCO3)c1ccccc1CO2 (centres unmarked) [Compound 65, 2-methyl-11-(1',3'-dioxoran-2-'spiro-4-piperidino)-6,11-dihydrodibenz[b,e]oxepin] |  | 10 |  | > 100 | > 300 |
| Fc1ccc2c(c1)C(NCCOC(c1ccccc1)c1ccccc1)c1ccccc1CO2 (centres unmarked) [Compound 33, 2-fluoro-11-{2-(diphenylmethyloxy)ethyl}amino-6,11-dihydrodibenz[b,e]oxepin] |  |  | 100 | > 100 | > 300 |
| Cc1ccc2c(c1)C(Nc1ccc3[nH]ccc3c1)c1ccccc1CO2 (centres unmarked) [Compound 62, 2-methyl-11-(5-indolyl)amino-6,11-dihydrodibenz[b,e]oxepin] |  |  | 50 | > 100 | > 300 |
| Cc1ccc2c(c1)C(N1CCN(CCN)CC1)c1ccccc1CO2 (centres unmarked) [Compound 44, 2-methyl-11-{4-(2-aminoethyl)-1-piperazinyl}-6,11-dihydrodibenz[b,e]oxepin] | 10 | 10 |  | 100 | > 300 |
| Fc1ccc2c(c1)C(NCC1COc3ccccc3O1)c1ccccc1CO2 (centres unmarked) [Compound 30, 2-fluoro-11-{(1,4-benzodioxane-2-)methyl}amino-6,11-dihydrodibenz[b,e]oxepin] | 10 | 10 |  | > 100 | > 300 |
| CCN(CC)CCCNC1c2ccccc2COc2ccc(OC)cc21 (centres unmarked) [Compound 7, 2-methoxy-11-{3-(diethylamino)propyl}amino-6,11-dihydrodibenz[b,e]oxepin] | 0.3 | 0.3 |  | 100 | > 300 |
| CC(CCc1ccccc1)NC1c2ccccc2COc2ccc(F)cc21 (centres unmarked) [Compound 32, 2-fluoro-11-{(1-methyl-3-phenyl)propyl}amino-6,11-dihydrodibenz[b,e]oxepin] | 3 |  |  | > 100 | > 300 |
| Fc1ccc(C(NC2c3ccccc3COc3ccc(F)cc32)c2ccc(F)cc2)cc1 (centres unmarked) [Compound 31, 2-fluoro-11-{bis-(4-fluorophenyl)methyl}amino-6,11-dihydrodibenz[b,e]oxepin] |  |  | 100 | > 100 | > 300 |
| CCN(CC)CCNC1c2ccccc2COc2c(C)cccc21 (centres unmarked) [Compound 12, 4-methyl-11-{2-(diethylamino)ethyl}amino-6,11-dihydrodibenz[b,e]oxepin] |  |  | 10 | 100 | > 300 |
| CCc1ccc2c(c1)C(Nc1cccc3ncccc13)c1ccccc1CO2 (centres unmarked) [Compound 61, 2-ethyl-11-(5-quinolyl)amino-6,11-dihydrodibenz[b,e]oxepin] |  | 10 |  | > 100 | > 300 |
| Cc1ccc2c(c1)C(NN1CCN(C)CC1)c1ccccc1CO2 (centres unmarked) [Compound 29, 2-methyl-11-(4-methyl-1-piperazinyl)amino-6,11-dihydrodibenz[b,e]oxepin] |  | 10 | 50 | > 100 | > 300 |
| c1ccc2c(c1)COc1ccc(C3CCCCC3)cc1C2NC1CN2CCC1CC2 (centres unmarked) [Compound 54, 2-cyclohexyl-11-(3-quinuclidinyl)amino-6,11-dihydrodibenz[b,e]oxepin] | 10 | 1 |  | 100 | > 300 |
| OCCN1CCN(C2c3ccccc3COc3c(-c4ccccc4)cccc32)CC1 (centres unmarked) [Compound 42, 4-phenyl-11-{4-(2-hydroxyethyl)-1-piperazinyl}-6,11-dihydrodibenz[b,e]oxepin] |  |  | 100 | > 100 | > 300 |
| CCN(CCN(C)C)C1c2ccccc2COc2ccc(C)cc21 (centres unmarked) [Compound 64, 2-methyl-11-[N-{2-(dimethylamino)ethyl}-N-ethyl]amino-6,11-dihydrodibenz[b,e]oxepin] | 10 | 10 |  | > 100 | > 300 |
| Cc1cccc2c1OCc1ccccc1C2N1CCN(CCO)CC1 (centres unmarked) [Compound 41, 4-methyl-11-{4-(2-hydroxyethyl)-1-piperazinyl}-6,11-dihydrodibenz[b,e]oxepin] |  |  | 100 | > 100 | > 300 |
| NCCN1CCN(C2c3ccccc3COc3ccc(F)cc32)CC1 (centres unmarked) [Compound 46, 2-fluoro-11-{4-(2-aminoethyl)-1-piperazinyl}-6,11-dihydrodibenz[b,e]oxepin] |  | 1 | 50 | > 100 | > 300 |
